Experimental data: the NIST ThermoML archive (doi:10.1016/j.jct.2006.08.009)
± gives the expanded uncertainty stated by the source.

Assay: mn = molality of the nth substance listed, in mol/kg
Details: 350 kPa, Liquid; for apparent molar heat capacity: Extra sensitive DSC

OC[C@@H](O)[C@@H](O)[C@@H](O)CO [SRS-1,2,3,4,5-pentanepentol] + O
apparent molar heat capacity (278.15 K, m1 = 0.0196): 335 ± 49 J/K/mol
apparent molar heat capacity (278.15 K, m1 = 0.0506): 329.5 ± 20 J/K/mol
apparent molar heat capacity (278.15 K, m1 = 0.1042): 335.2 ± 10 J/K/mol
apparent molar heat capacity (278.15 K, m1 = 0.2591): 334.4 ± 5.6 J/K/mol
apparent molar heat capacity (278.15 K, m1 = 0.5092): 334.9 ± 4.3 J/K/mol
apparent molar heat capacity (278.15 K, m1 = 0.9969): 336.5 ± 3.9 J/K/mol
apparent molar heat capacity (278.15 K, m1 = 1.998): 336.2 ± 3.8 J/K/mol
apparent molar heat capacity (278.15 K, m1 = 3.177): 339.7 ± 3.7 J/K/mol
mass density (278.15 K, m1 = 0.0196): 1001.15 ± 0.17 kg/m3
mass density (278.15 K, m1 = 0.0506): 1002.66 ± 0.18 kg/m3
mass density (278.15 K, m1 = 0.1042): 1005.31 ± 0.18 kg/m3
mass density (278.15 K, m1 = 0.2591): 1012.83 ± 0.2 kg/m3
mass density (278.15 K, m1 = 0.5092): 1024.77 ± 0.22 kg/m3
mass density (278.15 K, m1 = 0.9969): 1046.03 ± 0.26 kg/m3
mass density (278.15 K, m1 = 1.998): 1084.53 ± 0.34 kg/m3
mass density (278.15 K, m1 = 3.177): 1119.46 ± 0.42 kg/m3
apparent molar heat capacity (283.15 K, m1 = 0.0196): 354 ± 50 J/K/mol
apparent molar heat capacity (283.15 K, m1 = 0.0506): 343 ± 20 J/K/mol
apparent molar heat capacity (283.15 K, m1 = 0.1042): 350.4 ± 10 J/K/mol
apparent molar heat capacity (283.15 K, m1 = 0.2591): 349.6 ± 5.5 J/K/mol
apparent molar heat capacity (283.15 K, m1 = 0.5092): 349.7 ± 4.2 J/K/mol
apparent molar heat capacity (283.15 K, m1 = 0.9969): 350.6 ± 3.7 J/K/mol
apparent molar heat capacity (283.15 K, m1 = 1.998): 349.4 ± 3.6 J/K/mol
apparent molar heat capacity (283.15 K, m1 = 3.177): 351.5 ± 3.5 J/K/mol
mass density (283.15 K, m1 = 0.0196): 1000.8 ± 0.17 kg/m3
mass density (283.15 K, m1 = 0.0506): 1002.31 ± 0.17 kg/m3
mass density (283.15 K, m1 = 0.1042): 1004.94 ± 0.18 kg/m3
mass density (283.15 K, m1 = 0.2591): 1012.39 ± 0.19 kg/m3
mass density (283.15 K, m1 = 0.5092): 1024.17 ± 0.22 kg/m3
mass density (283.15 K, m1 = 0.9969): 1045.12 ± 0.26 kg/m3
mass density (283.15 K, m1 = 1.998): 1083.19 ± 0.34 kg/m3
mass density (283.15 K, m1 = 3.177): 1117.64 ± 0.41 kg/m3
apparent molar heat capacity (288.15 K, m1 = 0.0196): 368 ± 49 J/K/mol
apparent molar heat capacity (288.15 K, m1 = 0.0506): 354.3 ± 20 J/K/mol
apparent molar heat capacity (288.15 K, m1 = 0.1042): 362 ± 10 J/K/mol
apparent molar heat capacity (288.15 K, m1 = 0.2591): 361.4 ± 5.3 J/K/mol
apparent molar heat capacity (288.15 K, m1 = 0.5092): 361.4 ± 4 J/K/mol
apparent molar heat capacity (288.15 K, m1 = 0.9969): 361.7 ± 3.5 J/K/mol
apparent molar heat capacity (288.15 K, m1 = 1.998): 359.9 ± 3.4 J/K/mol
apparent molar heat capacity (288.15 K, m1 = 3.177): 361.1 ± 3.2 J/K/mol
mass density (288.15 K, m1 = 0.0196): 1000.18 ± 0.17 kg/m3
mass density (288.15 K, m1 = 0.0506): 1001.7 ± 0.17 kg/m3
mass density (288.15 K, m1 = 0.1042): 1004.3 ± 0.18 kg/m3
mass density (288.15 K, m1 = 0.2591): 1011.68 ± 0.19 kg/m3
mass density (288.15 K, m1 = 0.5092): 1023.3 ± 0.22 kg/m3
mass density (288.15 K, m1 = 0.9969): 1044.05 ± 0.26 kg/m3
mass density (288.15 K, m1 = 1.998): 1081.81 ± 0.34 kg/m3
mass density (288.15 K, m1 = 3.177): 1115.96 ± 0.41 kg/m3
apparent molar heat capacity (293.15 K, m1 = 0.0196): 377 ± 46 J/K/mol
apparent molar heat capacity (293.15 K, m1 = 0.0506): 365.3 ± 19 J/K/mol
apparent molar heat capacity (293.15 K, m1 = 0.1042): 371.7 ± 10 J/K/mol
apparent molar heat capacity (293.15 K, m1 = 0.2591): 371.2 ± 5.2 J/K/mol
apparent molar heat capacity (293.15 K, m1 = 0.5092): 371 ± 3.9 J/K/mol
apparent molar heat capacity (293.15 K, m1 = 0.9969): 371 ± 3.4 J/K/mol
apparent molar heat capacity (293.15 K, m1 = 1.998): 368.5 ± 3.2 J/K/mol
apparent molar heat capacity (293.15 K, m1 = 3.177): 369.4 ± 3 J/K/mol
apparent molar heat capacity (298.15 K, m1 = 0.0196): 385 ± 45 J/K/mol
apparent molar heat capacity (298.15 K, m1 = 0.0506): 375.1 ± 18 J/K/mol
apparent molar heat capacity (298.15 K, m1 = 0.1042): 380.2 ± 9.7 J/K/mol
apparent molar heat capacity (298.15 K, m1 = 0.2591): 379.6 ± 4.9 J/K/mol
apparent molar heat capacity (298.15 K, m1 = 0.5092): 379.3 ± 3.7 J/K/mol
apparent molar heat capacity (298.15 K, m1 = 0.9969): 379 ± 3.2 J/K/mol
apparent molar heat capacity (298.15 K, m1 = 1.998): 376.1 ± 3 J/K/mol
apparent molar heat capacity (298.15 K, m1 = 3.177): 376.6 ± 3 J/K/mol
mass density (298.15 K, m1 = 0.0196): 998.09 ± 0.18 kg/m3
mass density (298.15 K, m1 = 0.0506): 999.6 ± 0.17 kg/m3
mass density (298.15 K, m1 = 0.1042): 1002.18 ± 0.17 kg/m3
mass density (298.15 K, m1 = 0.2591): 1009.48 ± 0.19 kg/m3
mass density (298.15 K, m1 = 0.5092): 1020.79 ± 0.21 kg/m3
mass density (298.15 K, m1 = 0.9969): 1041.23 ± 0.25 kg/m3
mass density (298.15 K, m1 = 1.998): 1078.43 ± 0.33 kg/m3
mass density (298.15 K, m1 = 3.177): 1112.13 ± 0.4 kg/m3
apparent molar heat capacity (303.15 K, m1 = 0.0196): 392 ± 44 J/K/mol
apparent molar heat capacity (303.15 K, m1 = 0.0506): 383.2 ± 18 J/K/mol
apparent molar heat capacity (303.15 K, m1 = 0.1042): 387.5 ± 9.5 J/K/mol
apparent molar heat capacity (303.15 K, m1 = 0.2591): 386.8 ± 4.8 J/K/mol
apparent molar heat capacity (303.15 K, m1 = 0.5092): 386.4 ± 3.6 J/K/mol
apparent molar heat capacity (303.15 K, m1 = 0.9969): 385.9 ± 3 J/K/mol
apparent molar heat capacity (303.15 K, m1 = 1.998): 382.8 ± 2.9 J/K/mol
apparent molar heat capacity (303.15 K, m1 = 3.177): 383 ± 2.8 J/K/mol
apparent molar heat capacity (308.15 K, m1 = 0.0196): 397 ± 44 J/K/mol
apparent molar heat capacity (308.15 K, m1 = 0.0506): 389.5 ± 18 J/K/mol
apparent molar heat capacity (308.15 K, m1 = 0.1042): 393.6 ± 9.2 J/K/mol
apparent molar heat capacity (308.15 K, m1 = 0.2591): 393 ± 4.8 J/K/mol
apparent molar heat capacity (308.15 K, m1 = 0.5092): 392.6 ± 3.4 J/K/mol
apparent molar heat capacity (308.15 K, m1 = 0.9969): 392 ± 3 J/K/mol
apparent molar heat capacity (308.15 K, m1 = 1.998): 388.8 ± 2.9 J/K/mol
apparent molar heat capacity (308.15 K, m1 = 3.177): 388.8 ± 2.8 J/K/mol
mass density (308.15 K, m1 = 0.0196): 995.08 ± 0.18 kg/m3
mass density (308.15 K, m1 = 0.0506): 996.56 ± 0.18 kg/m3
mass density (308.15 K, m1 = 0.1042): 999.1 ± 0.17 kg/m3
mass density (308.15 K, m1 = 0.2591): 1006.35 ± 0.18 kg/m3
mass density (308.15 K, m1 = 0.5092): 1017.44 ± 0.2 kg/m3
mass density (308.15 K, m1 = 0.9969): 1037.61 ± 0.25 kg/m3
mass density (308.15 K, m1 = 1.998): 1074.35 ± 0.32 kg/m3
mass density (308.15 K, m1 = 3.177): 1107.66 ± 0.39 kg/m3
apparent molar heat capacity (313.15 K, m1 = 0.0196): 403 ± 43 J/K/mol
apparent molar heat capacity (313.15 K, m1 = 0.0506): 395.7 ± 17 J/K/mol
apparent molar heat capacity (313.15 K, m1 = 0.1042): 399.2 ± 9.1 J/K/mol
apparent molar heat capacity (313.15 K, m1 = 0.2591): 398.6 ± 4.7 J/K/mol
apparent molar heat capacity (313.15 K, m1 = 0.5092): 398.2 ± 3.4 J/K/mol
apparent molar heat capacity (313.15 K, m1 = 0.9969): 397.4 ± 2.9 J/K/mol
apparent molar heat capacity (313.15 K, m1 = 1.998): 394.1 ± 2.7 J/K/mol
apparent molar heat capacity (313.15 K, m1 = 3.177): 393.9 ± 2.6 J/K/mol
apparent molar heat capacity (318.15 K, m1 = 0.0196): 408 ± 42 J/K/mol
apparent molar heat capacity (318.15 K, m1 = 0.0506): 401.1 ± 17 J/K/mol
apparent molar heat capacity (318.15 K, m1 = 0.1042): 404.3 ± 8.9 J/K/mol
apparent molar heat capacity (318.15 K, m1 = 0.2591): 403.7 ± 4.6 J/K/mol
apparent molar heat capacity (318.15 K, m1 = 0.5092): 403.2 ± 3.3 J/K/mol
apparent molar heat capacity (318.15 K, m1 = 0.9969): 402.3 ± 2.9 J/K/mol
apparent molar heat capacity (318.15 K, m1 = 1.998): 398.9 ± 2.7 J/K/mol
apparent molar heat capacity (318.15 K, m1 = 3.177): 398.6 ± 2.6 J/K/mol
mass density (318.15 K, m1 = 0.0196): 991.29 ± 0.19 kg/m3
mass density (318.15 K, m1 = 0.0506): 992.73 ± 0.19 kg/m3
mass density (318.15 K, m1 = 0.1042): 995.28 ± 0.18 kg/m3
mass density (318.15 K, m1 = 0.2591): 1002.45 ± 0.18 kg/m3
